Laboratory results taken from BindingDB's records for doi:10.3109/14756366.2012.680063 (Rhodes University, 2013).
pKd, pKi: −log10 of the molar value. Residues, ends and D or L forms follow the SMILES beside them.

Columns and labels:
[1] = biological target: T1, Superoxide dismutase [Cu-Zn] (Bovine, UniProt P00442); test: SOD Assay (Fluorimetric Analysis); conditions: pH 8; 37 °C
Procedure: SOD activity of the purified samples was determined by the SOD assay kit using (2-(4-iodophenyl)-3-(4nitrophenyl)-5-(2,4-disulphenyl)-2H-tetrazolium, monosodium salt) [WST] which is a colorimetric assay that monitors the rate of inhibition of WST to a water soluble formazan dye.

[2] = biological target: T1, Superoxide dismutase [Cu-Zn]; test: SOD Assay (Kinetic Analysis)

T1 sequence (P00442 whole entry): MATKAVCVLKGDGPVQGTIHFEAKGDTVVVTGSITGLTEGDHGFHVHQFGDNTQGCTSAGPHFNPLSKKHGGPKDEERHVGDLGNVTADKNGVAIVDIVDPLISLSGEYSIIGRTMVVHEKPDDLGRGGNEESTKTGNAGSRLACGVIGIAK

Row | pKd [1] | pKi [2] | SMILES
1 | 5.03 | 4.84 | CC[C@H](C)[C@H](NC(=O)[C@H](C)NC(=O)CNC(=O)[C@H](CCCCN)NC(=O)[C@H](CC(N)=O)NC(=O)[C@H](CO)NC(=O)CN)C(=O)N[C@H](C(=O)NCC(=O)N[C@@H](CC(C)C)C(=O)N[C@@H](CCSC)C(=O)N[C@H](C(=O)NCC(=O)O)C(C)C)[C@@H](C)CC [Aβ (25-37)] (H-GSNKGAIIGLMVG-OH)
2 | 4.80 | 4.88 | CC[C@H](C)[C@H](NC(=O)[C@H](C)NC(=O)CN)C(=O)N[C@H](C(=O)NCC(=O)O)[C@@H](C)CC [Aβ (29-33)] (H-GAIIG-OH)
